Measured values as given in ChEMBL document CHEMBL1126985, “Brush-border-enzyme-mediated intestine-specific drug delivery. Amino acid prodrugs of 5-aminosalicylic acid” (J Med Chem, 1993).

Assays:
[1] = Half-life was determined by hydrolysis of compound in a solution of peptidases; type: ADME
Rattus norvegicus [2] = species on record: Rattus norvegicus; experiment: Fecal recovery in colostomized rats at 2 hr intervals for 48 h; type: functional
Rattus norvegicus [3] = species on record: Rattus norvegicus; experiment: Fecal recovery in non-colostomized rats at 2 hr intervals for 48 h; type: functional
Rattus norvegicus [4] = species on record: Rattus norvegicus; experiment: Urinary recovery in colostomized rats at 2 hr intervals for 48 h; type: functional, Urine
Rattus norvegicus [5] = species on record: Rattus norvegicus; experiment: Urinary recovery in non-colostomized rats at 2 hr intervals for 48 h; type: functional, Urine

| half-life [1] [h] | Compound | Fecal recovery (Rattus norvegicus [2]) [%] | Fecal recovery (Rattus norvegicus [3]) [%] | Urinary recovery (Rattus norvegicus [4]) [%] | Urinary recovery (Rattus norvegicus [5]) [%] |
| --- | --- | --- | --- | --- | --- |
| 1.35 | N[C@@H](CCC(=O)[O-])C(=O)Nc1ccc(O)c(C(=O)[O-])c1.[Na+].[Na+] | 44.2 | 44.29 | 31.83 | 32.42 |
|  | O=C(O)c1cc(/N=N/c2ccc(S(=O)(=O)Nc3ccccn3)cc2)ccc1O [SULFASALAZINE] | 37.77 | 38.9 | 33.34 | 32.21 |
|  | N[C@@H](CC(=O)[O-])C(=O)Nc1ccc(O)c(C(=O)[O-])c1.[Na+].[Na+] | 35.73 | 34.2 | 32.66 | 30.09 |
|  | Nc1ccc(O)c(C(=O)O)c1 [MESALAMINE] | 5.08 | 4.32 | 69.61 | 78.84 |
